Experimental data reported in the NIST ThermoML archive (doi:10.1021/acs.jced.5b00343).
± gives the expanded uncertainty stated by the source.

What was measured:
[1] = 101 kPa, Liquid; for speed of sound: Frequency=1.5 MHz, Sing-around technique in a fixed-path interferometer; for mass density: Vibrating tube method
[2] = refractive index (Na D-line) (dimensionless); details: 101 kPa, Liquid, Standard Abbe refractometry

CCCCO [butan-1-ol]
Details	mass density, [1] [kg/m3]	refractive index, [2]	speed of sound, [1] [m/s]
303.15 K	802.01 ± 0.15	1.3948 ± 0.0004	1222.7 ± 1.5
308.15 K	798.14 ± 0.15	1.3927 ± 0.0004	1206.3 ± 1.5
313.15 K	794.22 ± 0.15	1.3907 ± 0.0004	1189.4 ± 1.5
318.15 K	790.28 ± 0.15	1.3875 ± 0.0004	1172.8 ± 1.5
323.15 K	786.29 ± 0.16	1.3848 ± 0.0004	1156.7 ± 1.5
